In patent publication US4939177A, “Use of avarol for the control of AIDS and ARC” (Merz + Co. GmbH & Co., priority 1986, dated 1990):
Read-outs that look alike come from different tables or passages of the source.

Assays:
[1] = test system: plaque forming cells in the spleen of mice; assay: Jerne plaque test, plaque forming cells in spleen of SRBC-immunized mice; format: in vivo, mouse; conditions: for Plaque forming cells per 10^6 cells: 30 mg/kg i.p.
Description: Concerning the functional consequences of the compound onto B-cells in vitro, I found (previous section) that both the IgG and the IgM secretion is stimulated in cultures of human lymphoid cells (unseparated) which are treated with non-cytostatic concentrations of avarol. This finding is supported by the results of the Jerne plaque test.
(§1) The plaque test of Jerne and Nordin (Science 140: 405-406, 1963) was used with the modification given by Cunningham and Szenberg (Immunolog. 14: 599-601; 1968). Briefly, 8 male NMRI mice per group (20-22 g) were immunized on day 0 by i.p. injection of 5×10^8 SRBC in 0.5 ml saline. Treatment with avarol was done i.p. either from day 0 to day +4 or from day -4 to day 0. One hour after the last drug administration, the animals were killed by a blow on the head and bled. The spleens were removed and a single cell suspension was prepared by teasing the pooled spleens through a 120-μm mesh sieve. After lysing the erythrocytes by 0.15M NH4 Cl, the cells were washed twice in Hank's balanced salt solution containing 29 ml of 7.5% NaHCO3 and 10 ml of 1M HEPES buffer solution per one liter. The cells were resuspended in 2 ml per spleen. Six Cunningham chambers per group were filled with a mixture of 0.5 ml of a suitable dilution of spleen cells (generally 1:100), 0.5 ml of a suspension of SRBC (10^9 /ml) and 125 μl of normal guinea pig complement. After 90-120 min of incubation at 37° C., the number of plaques was counted. Plaques per spleen or per 10^6 spleen cells were calculated.

[2] = Organ distribution of tritium labelled avarol in rats; format: in vivo, rat; conditions: for Concentration of Avarol, Brain / Concentration of Avarol, Heart / Concentration of Avarol, Kidney / Concentration of Avarol, Liver / Concentration of Avarol, Skin / Concentration of Avarol, Spleen / Concentration of Avarol, Testes: rat, 24 hours
lymphoma cell = conditions: previous studies; cited from earlier work
[3] = format: in vivo, rat; conditions: for Percentage of Radioactivity in Blood: rat
Lethal dose in rats = conditions: rat, in vivo; male Sprague-Dawley rats, treatment for 5 days; read-out: 50% lethal dose
Description: From previous experiments with NMRI mice, bearing L5178y cells, it is known that the chemotherapeutical dose of avarol is in the range of 1-50 mg/kg at a 50% lethal dose of 269.1 mg/kg (Muller et al., Cancer Res. 45: 4822-4826; 1985). The 50% lethal dose (treatment for 5 days) for male Sprague-Dawley rats was determined to be 235.7 mg/kg. Therefore, daily doses of avarol of 1-30 mg/kg/injection were chosen for the following in vivo studies.

IgG titer = assay: Serum IgG titer of SRBC-immunized mice; format: in vivo, mouse; conditions: 30 mg/kg i.p., untreated 4
Description: as §1
The pooled blood of 8 mice was centrifuged to obtain the serum. IgM and IgG titers were measured with the mercaptoethanol method (Hudson, L. and Hay, F. C. Practical Immunology, Blackwell Sci., Oxford; 1983).

[4] = test system: L5178y mouse lymphoma cells; assay: L5178y cell growth; format: cell-based; conditions: 72 hours
Description: mouse lymphoma cells were grown in roller tube cultures in Eagle's minimum essential medium, supplemented with 10% horse serum (Muller et al., Cancer Res. 39: 1102-1107; 1979 and Muller et al. Cancer Res. 45: 4822-4826; 1985). […] The cell growth was determined by cell count with a computer supported cell-counter (128-channel counter; Cytocomp, system Michaelis: BIOTRON-Medizinelektronik, Mainz; West Germany). The ED50 (±SD) was estimated by logit regression (L. Sachs, […], Springer-Verlag, Berlin 1984). The mathematical evaluation of the fractional inhibitory concentration indices (FIC indices) of Avarol/Avarone-DDC combinations was performed according to published equations and experimental conditions (Muller et al., Cancer Lett. 1: 127-132; 1976; and Phillips et al., Antimicrob. Agents Chemother. 9: 736-740, 1976). […] In this set of experiments, […] cells were incubated with Avarol in the absence or presence of the established SODase inhibitor DDC.

[5] = Chemical nature and biological activity of radioactive product in rat blood (HPLC; L5178y system); format: in vivo; conditions: iv, after circulation in the body for 22 hours, read-out: modification to a biologically-inactive form
Description: These concentrations were determined on the basis of radioactivity. Moreover, the chemical nature of the radioactive product was identified by high-pressure liquid chromatography and found to consist of over 90% of Avarol. In addition, the biological activity of the compound in the blood was determined after extraction with ethyl acetate and estimated in the L5178y cell system in vitro (Muller, W.E.G. et al.; Comp. Biochem. Physiol. 80C, 47-52; 1985). Using this system, the biological activity of the compound, present in the blood, was determined and converted on a gram basis. Using this approach the concentration in the blood was only 5-15% lower than that determined on the basis of radioactivity.

[6] = test system: Arthus reaction in Sprague-Dawley rats; assay: Antibody mediated hypersensitivity (modified active Arthus reaction, ovalbumin); format: in vivo, rat

## CC1=CCC[C@H]2[C@](C)(Cc3cc(O)ccc3O)[C@@H](C)CC[C@]12C [Avarol, 2-[(1R)-1,2,3,4,4a,7,8,8aα-octahydro-1β,2β,4aβ,5-tetramethyl-1-naphthylmethyl]-1,4-benzenediol]
[1]; from 0 to +4 days, untreated 2,782
  Plaque forming cells per 10^6 cells: 3,316
[1]; from -4 to 0 days, untreated 2,259
  Plaque forming cells per 10^6 cells: 2,202
[1]; 30 mg/kg, day 0 to day +4
  higher number of plaque forming cells/spleen: 28%
[1]; 30 mg/kg, day -4 to day 0
  increase of plaque forming cells/spleen: 21%
[2]; i.v. 2 mg/kg
  Concentration of Avarol, Brain: 0.45 microgram of Avarol per gram o
  Concentration of Avarol, Heart: 0.7 microgram of Avarol per gram o
  Concentration of Avarol, Kidney: 1.6 microgram of Avarol per gram o
  Concentration of Avarol, Liver: 6.4 microgram of Avarol per gram o
  Concentration of Avarol, Skin: 0.4 microgram of Avarol per gram o
  Concentration of Avarol, Spleen: 1.7 microgram of Avarol per gram o
  Concentration of Avarol, Testes: 0.48 microgram of Avarol per gram o
[2]; i.v. 10 mg/kg
  Concentration of Avarol, Brain: 0.58 microgram of Avarol per gram o
  Concentration of Avarol, Heart: 0.9 microgram of Avarol per gram o
  Concentration of Avarol, Kidney: 2.2 microgram of Avarol per gram o
  Concentration of Avarol, Liver: 6.9 microgram of Avarol per gram o
  Concentration of Avarol, Skin: 0.6 microgram of Avarol per gram o
  Concentration of Avarol, Spleen: 1.9 microgram of Avarol per gram o
  Concentration of Avarol, Testes: 0.63 microgram of Avarol per gram o
[2]; i.v. 20 mg/kg
  Concentration of Avarol, Brain: 0.64 microgram of Avarol per gram o
  Concentration of Avarol, Heart: 0.9 microgram of Avarol per gram o
  Concentration of Avarol, Kidney: 2.4 microgram of Avarol per gram o
  Concentration of Avarol, Liver: 7.4 microgram of Avarol per gram o
  Concentration of Avarol, Skin: 0.6 microgram of Avarol per gram o
  Concentration of Avarol, Spleen: 2.2 microgram of Avarol per gram o
  Concentration of Avarol, Testes: 0.67 microgram of Avarol per gram o
[2]; rats, i.v.
  blood-brain barrier penetration: penetrates the blood-brain barrier
Lymphoma cell
  concentration inhibiting lymphoma cell growth by 50%: 0.3 to 0.4 µg/mL
  sensitivity of T-cell derived leukemia cells vs normal T- or B-lymphocytes: more sensitively inhibited
[3]; i.v. 10 mg/kg, 1 hour, 100% = 10 minutes after injection
  Percentage of Radioactivity in Blood: 96%
[3]; i.v. 10 mg/kg, 6 hours, 100% = 10 minutes after injection
  Percentage of Radioactivity in Blood: 88%
[3]; i.v. 10 mg/kg, 12 hours, 100% = 10 minutes after injection
  Percentage of Radioactivity in Blood: 72%
[3]; i.v. 10 mg/kg, 24 hours, 100% = 10 minutes after injection
  Percentage of Radioactivity in Blood: 43%
[3]; i.v. 10 mg/kg, 48 hours, 100% = 10 minutes after injection
  Percentage of Radioactivity in Blood: 26%
[3]; i.v. 20 mg/kg, 1 hour, 100% = 10 minutes after injection
  Percentage of Radioactivity in Blood: 92%
[3]; i.v. 20 mg/kg, 12 hours, 100% = 10 minutes after injection
  Percentage of Radioactivity in Blood: 75%
[3]; i.v. 20 mg/kg, 24 hours, 100% = 10 minutes after injection
  Percentage of Radioactivity in Blood: 39%
[3]; i.v. 20 mg/kg, 48 hours, 100% = 10 minutes after injection
  Percentage of Radioactivity in Blood: 21%
[3]; in vivo, iv, 20 mg/kg
  Percentage of Radioactivity in Blood: 83
[3]; rats, i.v.
  half-life: approximately 22 hours
Lethal dose in rats
  LD50 at 120 h: 236 mg/kg
IgG titer; from 0 to +4 days
  Titer IgG: 2
IgG titer; from -4 to 0 days
  Titer IgG: 4
[4]; DDC 1.46 μM, read-out: ED50 with coaddition of DDC
  IC50: 270 ± 40 nM
[4]; DDC 1.71 μM, read-out: ED50 with coaddition of DDC
  IC50: 108 ± 15 nM
[4]; Mus musculus, L5178Y, cell growth, absence of DDC, read-out: ED50 (the source's name)
  IC50: 940 ± 140 nM
[5]
  metabolised at 22 h: ≤ 15%
[6]; 30 mg/kg, 24 hours and 30 minutes before challenge, P>0.05
  Arthus reaction, in words: weak suppression of the reaction
[6]; 3-30 mg/kg i.p., day -1 to +2, day +18 to +21, or immediately before challenge
  Arthus reaction, in words: no significant suppression of the Arthus reaction
